Source: patent US20240382519A1, “MONOVALENT COPPER/PORPHYRIDIUM SP. POLYSACCHARIDE COMPLEXES, RELATED PRODUCTS AND METHODS OF PREPARATION THEREOF” (B.G. NEGEV TECHNOLOGIES AND APPLICATIONS LTD., AT …, priority 2021, published 2024)

Experiments:
Conditions in all cases: CFU after 24 h, 0.07% (w/v) polysaccharide, 30 ppm copper, Table 3(b)
E. coli = test system: E. coli
S. aureus = test system: S. aureus
C. albicans = test system: C. albicans
B. subtilis = test system: B. subtilis
A. baumannii = test system: A. baumannii
P. aeruginosa = test system: P. aeruginosa

Compound: [Cl][Cu][Cl] [CuCl2]
- Cell Viability [%] (E. coli): 81.3 ± 5.6%
- Cell Viability [%] (S. aureus): 81.6 ± 4.5%
- Cell Viability [%] (C. albicans): 71.0 ± 1.0%
- Cell Viability [%] (B. subtilis): 82.0 ± 1.0%
- Cell Viability [%] (A. baumannii): 81.5 ± 7.4%
- Cell Viability [%] (P. aeruginosa): 82.6 ± 6.8%

Compound: [Cl][Cu] [CuCl, cuprous chloride]
- Cell Viability [%] (C. albicans): 90.3 ± 0.6%
- Cell Viability [%] (B. subtilis): 52.6 ± 5.4%
- Cell Viability [%] (A. baumannii): 37.4 ± 3.5%
- Cell Viability [%] (P. aeruginosa): 38.9 ± 4.5%

Compound: [O]=[Cu] [CuO]
- Cell Viability [%] (E. coli): 78.1 ± 6.5%
- Cell Viability [%] (S. aureus): 71.2 ± 8.9%
- Cell Viability [%] (C. albicans): 84.7 ± 4.0%
- Cell Viability [%] (B. subtilis): 72.7 ± 4.0%
- Cell Viability [%] (A. baumannii): 87.1 ± 2.3%
- Cell Viability [%] (P. aeruginosa): 79.4 ± 8.9%
